# Assay results reported in paper PMC3193053 (Analytical chemistry, 2011).
# Test system: VHH T9
# Assay: Cross-reactivity of the TCC competitive ELISA set up with VHH T9
# Assay type: binding, Lama glama
# Conditions: CR% = IC50 (TCC) ÷ IC50 (cross-reacting compound) × 100
row,Compound,CR (%)
1,O=C(Nc1ccc(Cl)c(Cl)c1)Nc1ccc(Cl)cc1OS(=O)(=O)O [Sulfate of 2′-OH TCC],<0.1
2,"CS(=O)(=O)N1CCC(NC(=O)Nc2ccc(OC(F)(F)F)cc2)CC1 [sEHi, #1709]",<0.1
3,O=C(Nc1ccccc1)Nc1ccccc1 [Carbanilide],1.78
4,"CC(=O)N1CCC(NC(=O)Nc2ccc(OC(F)(F)F)cc2)CC1 [sEHi, #1555]",<0.1
5,Oc1cc(Cl)ccc1Oc1ccc(Cl)cc1Cl [Triclosan],<0.1
6,"O=C(Nc1ccc(Cl)cc1)Nc1ccc(Cl)cc1 [4,4′-Dichlorocarbanilide]",13.3
7,Dinuron,<0.1
8,O=C(Nc1ccc(Cl)c(Cl)c1)Nc1ccc(Cl)cc1O [2′-OH TCC],16.9
9,"O=C(Nc1ccc(Cl)cc1)Nc1ccc(Cl)c(C(F)(F)F)c1 [3-Trifluoromethyl-4,4′-dichlorocarbanilide]",6.97
10,"O=C(Nc1ccc(Cl)c(Cl)c1)Nc1ccc(Cl)c(Cl)c1 [3,3′,4,4′-Tetrachloro-carbanilide]",2.46
11,"O=C(Nc1ccc(Cl)cc1)Nc1ccc(Cl)c(Cl)c1 [TCC, 3,4,4′-trichlorocarbanilide]",100
